Drawing on patent US20170037028A1 (BAYER PHARMA AKTIENGESELLSCHAFT, priority 2013, published 2017), this text covers IC50 for 59 molecules.

In general, IC50 refers to the concentration needed to halve the response being measured.

For the test, the target named is T1, GLUT1 (Homo sapiens, UniProt P11166).
T1 sequence (P11166 1-492): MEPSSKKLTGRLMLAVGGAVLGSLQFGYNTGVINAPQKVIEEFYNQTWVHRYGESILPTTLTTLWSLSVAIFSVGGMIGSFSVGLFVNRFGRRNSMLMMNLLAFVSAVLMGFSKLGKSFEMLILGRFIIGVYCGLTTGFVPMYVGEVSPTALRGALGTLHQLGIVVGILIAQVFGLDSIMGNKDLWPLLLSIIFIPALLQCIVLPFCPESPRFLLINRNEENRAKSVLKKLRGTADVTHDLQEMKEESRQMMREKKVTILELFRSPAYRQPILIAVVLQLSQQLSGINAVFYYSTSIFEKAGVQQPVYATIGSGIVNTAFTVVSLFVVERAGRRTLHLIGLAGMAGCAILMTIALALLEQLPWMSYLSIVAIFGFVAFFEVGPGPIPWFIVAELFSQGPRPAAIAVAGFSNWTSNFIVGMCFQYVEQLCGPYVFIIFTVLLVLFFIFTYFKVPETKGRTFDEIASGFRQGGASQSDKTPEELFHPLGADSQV
Kind of test: Indirect measurement of GLUT1 activity by quantification of intracellular ATP levels (glucose induced ATP increase). Further details: endogenous in cells; host or cells: DLD1 or CHO-K1. Format: cell-based. The following applies: read-out: IC50 regarding glucose induced ATP increase (GLUT1 inhibition). The method in brief:
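Intracellular ATP was measured by CellTiter-Glo luminescence as an indirect readout of transport: glucose-driven for GLUT1, fructose-driven for GLUT2. DLD1 or CHO-K1 cells were used alongside an oxidative phosphorylation inhibitor. Beforehand, cells were held overnight in glucose-free 1% FCS medium to deplete ATP.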
Take `Cc1c(NC(=O)c2cc(C(N)=O)nc3ccc(N4CCN(C)CC4)cc23)c(C(F)(F)F)nn1Cc1ccc(C#N)cc1` [Example 1394]: the IC50 was found to be 127 nM. For `Cc1c(NC(=O)c2cc(C(N)=O)nc3cccc(F)c23)c(C(F)(F)F)nn1Cc1ncccc1C#N` [Example 1395] the value was 12.6 nM; for `Cc1c(NC(=O)c2cc(C(N)=O)nc3cc(F)ccc23)c(C(F)(F)F)nn1Cc1ccc(F)c(F)c1` [Example 1396], 4.6 nM; for `Cc1nn(Cc2ccc(C#N)cc2)c(C)c1NC(=O)c1cc(C(=O)NCCO)nc2cc(F)ccc12` [Example 1399], 132 nM. For `Cc1c(NC(=O)c2cc(C(=O)NCCN(C)C)nc3cc(F)ccc23)c(C(F)(F)F)nn1Cc1ccc(C#N)cc1` [Example 1400] the value was 2610 nM; for `Cc1nn(Cc2ccc(C#N)cc2)c(C)c1NC(=O)c1cc(C(=O)NCCN(C)C)nc2cc(F)ccc12` [Example 1401], 1240 nM. The figure for `Cc1nn(Cc2ccc(C#N)cc2)c(C)c1NC(=O)c1cc(C(=O)NCCN2CCOCC2)nc2cc(F)ccc12` [Example 1402] is 238 nM; for `Cc1c(NC(=O)c2cc(C(=O)NCCO)nc3cc(F)ccc23)c(C(F)(F)F)nn1Cc1ccc(C#N)cc1` [Example 1403] it is 245 nM.

On to `Cc1nn(Cc2ccc(C(C)C)cc2)c(C)c1NC(=O)c1cc(C(N)=O)nc2cc(F)ccc12` [Example 1404], for which the IC50 amounted to 3.8 nM. On to `Cc1nn(Cc2ccc(C(C)C)cc2)c(C)c1NC(=O)c1cc(C(N)=O)nc2ccccc12` [Example 1405], for which the IC50 was 8.2 nM. With `Cc1c(NC(=O)c2cc(C(N)=O)nc3cc(F)ccc23)c(C(F)(F)F)nn1Cc1ccc(C(C)C)cc1` [Example 1406], the IC50 is 119 nM. For `Cc1c(NC(=O)c2cc(C(N)=O)nc3ccccc23)c(C(F)(F)F)nn1Cc1ccc(C(C)C)cc1` [Example 1407] the value was 28.7 nM; for `Cc1nn(Cc2ncccc2C#N)c(C)c1NC(=O)c1cc(C(N)=O)nc2ccc(Br)cc12` [Example 1408], 4.9 nM; for `Cc1nn(Cc2ncccc2C#N)c(C)c1NC(=O)c1cc(C(N)=O)nc2cc(F)ccc12` [Example 1409], 11.1 nM.

In the case of `Cc1nn(Cc2ncccc2C#N)c(C)c1NC(=O)c1cc(C(N)=O)nc2cccc(F)c12` [Example 1410], the IC50 was 30.6 nM. Take `Cc1nn(Cc2ncccc2C#N)c(C)c1NC(=O)c1cc(C(N)=O)nc2cc(F)c(Cl)cc12` [Example 1411]: the IC50 was determined as 3.2 nM. For `CCc1ccc(Cn2nc(C(F)(F)F)c(NC(=O)c3cc(C(N)=O)nc4ccccc34)c2C)cc1` [Example 1413], the IC50 is 1.1 nM.

With `CCc1ccc(Cn2nc(C(F)(F)F)c(NC(=O)c3cc(C(N)=O)nc4ccc(Br)cc34)c2C)cc1` [Example 1414], the IC50 was 0.8 nM.

Turning to `CCc1ccc(Cn2nc(C(F)(F)F)c(NC(=O)c3cc(C(N)=O)nc4cc(F)c(Cl)cc34)c2C)cc1` [Example 1415], the IC50 turned out to be 3.3 nM. Consider `Cc1nn(Cc2ccncn2)c(C)c1NC(=O)c1cc(C(F)(F)F)nc2ccc(Br)cc12` [Example 1416], for which the IC50 stood at 97 nM.

`Cc1nn(Cc2ccncn2)c(C)c1NC(=O)c1cc(C(N)=O)nc2ccccc12` [Example 1417]: the IC50 was 164 nM. For `COc1cc(C(=O)Nc2c(C#N)nn(Cc3ccc(F)cc3)c2C)c2ccccc2n1` [Example 1418] the value was 34.1 nM. On to `Cc1nn(Cc2ccc(C(=O)N3CCC3)cc2)c(C)c1NC(=O)c1cc(C(N)=O)nc2cc(F)ccc12` [Example 1419], for which the IC50 is 24.6 nM. The figure for `Cc1nn(Cc2ccc(C(=O)NCCO)cc2)c(C)c1NC(=O)c1cc(C(N)=O)nc2cc(F)ccc12` [Example 1420] is 354 nM.

Take `COCCNC(=O)c1ccc(Cn2nc(C)c(NC(=O)c3cc(C(N)=O)nc4cc(F)ccc34)c2C)cc1` [Example 1421]: the 50% inhibitory concentration (IC50) was found to be 39 nM. For `Cc1nn(Cc2ccc(C(=O)NCCN(C)C)cc2)c(C)c1NC(=O)c1cc(C(N)=O)nc2cc(F)ccc12` [Example 1422] the value was 7110 nM; for `Cc1nn(Cc2ccc(C(=O)O)cc2)c(C)c1NC(=O)c1cc(C(N)=O)nc2cc(F)ccc12` [Example 1423], 29.6 nM.

As to `Cc1nn(Cc2ccc(C(N)=O)cc2)c(C)c1NC(=O)c1cc(C(N)=O)nc2cc(F)ccc12` [Example 1424], the IC50 amounted to 69.1 nM. The figure for `CNC(=O)c1ccc(Cn2nc(C)c(NC(=O)c3cc(C(N)=O)nc4cc(F)ccc34)c2C)cc1` [Example 1425] is 56.3 nM. Take `Cc1nn(Cc2ccc(C(=O)N(C)C)cc2)c(C)c1NC(=O)c1cc(C(N)=O)nc2cc(F)ccc12` [Example 1426]: the IC50 turned out to be 80 nM.

Take `Cc1nn(Cc2ccc(C#N)cc2)c(C)c1NC(=O)c1cc(C(=O)N2CCC2)nc2cc(F)ccc12` [Example 1428]: the IC50 was 12.3 nM. For `Cc1c(NC(=O)c2cc(C(N)=O)nc3cc(F)ccc23)c(C(F)(F)F)nn1Cc1ccc(S(C)(=O)=O)cc1` [Example 1429] the value was 29.4 nM; for `Cc1c(NC(=O)c2cc(C(F)(F)F)nc3ccc(Br)cc23)c(C(F)(F)F)nn1Cc1ccc(S(C)(=O)=O)cc1` [Example 1430], 66.3 nM; for `COc1cc(C(=O)Nc2c(C(F)(F)F)nn(Cc3ccc(S(C)(=O)=O)cc3)c2C)c2ccccc2n1` [Example 1431], 138 nM.

Turning to `Cc1c(NC(=O)c2cc(C(N)=O)nc3ccccc23)c(C(F)(F)F)nn1Cc1ccc(S(C)(=O)=O)cc1` [Example 1432], the IC50 was found to be 27.4 nM. For `Cc1c(NC(=O)c2cc(C(N)=O)nc3ccc(NCCN(C)C)cc23)c(C(F)(F)F)nn1Cc1ccc(C#N)cc1` [Example 1434] the value was 51.3 nM; for `Cc1c(NC(=O)c2cc(C(N)=O)nc3cc(F)ccc23)c(C(F)(F)F)nn1Cc1ccc(F)cc1F` [Example 1435], 2.8 nM.

On to `COc1cc(C(=O)Nc2c(C(F)(F)F)nn(Cc3ccc(F)cc3)c2C)c2ccccc2n1` [Example 1436], for which the IC50 was found to be 63.2 nM. For `Cc1c(NC(=O)c2cc(C(N)=O)nc3cccc(F)c23)c(C(F)(F)F)nn1Cc1ccc(S(C)(=O)=O)cc1` [Example 1437] the value was 13.9 nM; for `Cc1c(NC(=O)c2cc(C(N)=O)nc3cc(F)c(Cl)cc23)c(C(F)(F)F)nn1Cc1ccc(S(C)(=O)=O)cc1` [Example 1438], 3.1 nM; for `Cc1c(NC(=O)c2cc(C(N)=O)nc3ccc(Br)cc23)c(C(F)(F)F)nn1Cc1ccc(S(C)(=O)=O)cc1` [Example 1439], 1.9 nM. For `Cc1c(NC(=O)c2cc(C(N)=O)nc3cccc(F)c23)c(C(F)(F)F)nn1Cc1ccc(F)cc1F` [Example 1440] the value was 5.4 nM; for `Cc1c(NC(=O)c2cc(C(N)=O)nc3cc(F)c(Cl)cc23)c(C(F)(F)F)nn1Cc1ccc(F)cc1F` [Example 1441], 6.5 nM; for `Cc1c(NC(=O)c2cc(C(N)=O)nc3ccc(Br)cc23)c(C(F)(F)F)nn1Cc1ccc(F)cc1F` [Example 1442], 2 nM. The figure for `Cc1c(NC(=O)c2cc(C(N)=O)nc3cccc(F)c23)c(C(F)(F)F)nn1Cc1ccc(F)c(F)c1` [Example 1443] is 4 nM; for `Cc1c(NC(=O)c2cc(C(N)=O)nc3cc(F)c(Cl)cc23)c(C(F)(F)F)nn1Cc1ccc(F)c(F)c1` [Example 1444] it is 11.6 nM; for `Cc1c(NC(=O)c2cc(C(N)=O)nc3ccc(Br)cc23)c(C(F)(F)F)nn1Cc1ccc(F)c(F)c1` [Example 1445] it is 5.7 nM. Turning to `COc1cccc(Cn2nc(C(F)(F)F)c(NC(=O)c3cc(C(N)=O)nc4cc(F)c(Cl)cc34)c2C)c1` [Example 1446], the IC50 stood at 1.9 nM. For `COc1cccc(Cn2nc(C(F)(F)F)c(NC(=O)c3cc(C(N)=O)nc4cc(F)ccc34)c2C)c1` [Example 1447] the value was 23.2 nM; for `COc1cccc(Cn2nc(C(F)(F)F)c(NC(=O)c3cc(C(N)=O)nc4ccccc34)c2C)c1` [Example 1448], 6.9 nM. The figure for `COc1cccc(Cn2nc(C(F)(F)F)c(NC(=O)c3cc(C(N)=O)nc4cccc(F)c34)c2C)c1` [Example 1449] is 18.7 nM; for `COc1cccc(Cn2nc(C(F)(F)F)c(NC(=O)c3cc(C(N)=O)nc4ccc(Br)cc34)c2C)c1` [Example 1450] it is 2.3 nM; for `COc1cccc(Cn2nc(C)c(NC(=O)c3cc(C(N)=O)nc4cccc(F)c34)c2C)c1` [Example 1451] it is 8.5 nM. The figure for `COc1cccc(Cn2nc(C)c(NC(=O)c3cc(C(N)=O)nc4ccccc34)c2C)c1` [Example 1452] is 8.8 nM.

As for `COc1cccc(Cn2nc(C)c(NC(=O)c3cc(C(N)=O)nc4cc(F)c(Cl)cc34)c2C)c1` [Example 1453], the IC50 is 1.4 nM.

As for `Cc1nn(Cc2cccc(C#N)c2)c(C)c1NC(=O)c1cc(C(N)=O)nc2cc(F)ccc12` [Example 1454], the IC50 was determined as 13.3 nM. For `Cc1nn(Cc2cccc(C#N)c2)c(C)c1NC(=O)c1cc(C(N)=O)nc2ccccc12` [Example 1455] the value was 20.8 nM; for `Cc1nn(Cc2cccc(C#N)c2)c(C)c1NC(=O)c1cc(C(N)=O)nc2cc(F)c(Cl)cc12` [Example 1456], 1.5 nM. The figure for `Cc1nn(Cc2cccc(C#N)c2)c(C)c1NC(=O)c1cc(C(N)=O)nc2cccc(F)c12` [Example 1457] is 15.2 nM.
